Source: patent US9498460B1, “Halogenated tetracyclic compounds” (KING SAUD UNIVERSITY, priority 2016, dated 2016)
In brackets after ≈: the same amount, converted by molar mass.

How the values were obtained:
[1] = test system: lung carcinoma cell line A549; test: MTT growth inhibition, A549; type: cell-based; conditions: for IC50: Homo sapiens, A549, MTT test, 96-well plate, serial dilution, spread in brackets; for sensitivity of treated cancer cells, times higher: cell line printed as A459, comparator not stated
Procedure: (§1) Growth inhibitions were measured in 96-well plates. Aliquots of 120 μL of the suspended cells (50,000 mL^−1) were given to 60 μL of a serial dilution of the inhibitor (S). After 5 days of incubations, growths were determined the MTT assay (MTT=3-(4,5-dimethylthiazol-2-yl)-2,5-diphenyltetrazolium bromide). Briefly, 20 μl MTT (5 mg/mL in PBS) were added to each well, and the plates were incubated for 2 h at 37° C., and 5% CO2-atmosphere in the cell incubator. The supernatants were then discarded and 200 μl of isopropanol/HCl were added to each well and mixed to dissolve the formazan crystals. The absorbance was then read at 550 nm using a microplate reader (Thermo Scientific, USA). The viability of the cells was calculated by dividing the absorbance average of the treated cells by the absorbance average of the control cells multiply 100%. […] The activities of the cells were plotted against the concentration of the drugs, and the IC50 values were calculated from the regression curve.
(§2) The cancer cell lines were incubated with serial dilution of each compound (from 313 pg ML^−1 to 5 mg ML^−1) in a 96-well plate for 4 days, and then tested for growth inhibition by MTT-Test.

[2] = test system: hepatocellular carcinoma HepG2 cell line; test: MTT growth inhibition, HepG2; type: cell-based; conditions: for IC50: Homo sapiens, MTT test, 96-well plate, serial dilution, spread in brackets; for sensitivity of treated cancer cells, times higher: comparator not stated
Procedure: as §1, §2

[3] = test system: colorectal carcinoma HTC-116 cell line; test: MTT growth inhibition, HTC-116 (HCT 116); type: cell-based; conditions: for IC50: Homo sapiens, HCT-116, MTT test, 96-well plate, serial dilution, spread in brackets; for growth inhibition of third cell line (HCT): result in words
Procedure: as §1
The cancer cell lines were incubated with serial dilution of each compound (from 313 pg ML^−1 to 5 mg ML^−1) in a 96-well plate for 4 days, and then tested for growth inhibition by MTT-Test. […] Replacing the formyl groups of the two compounds with amino groups (Sub. 6 and Sub. 7) caused remarkable decreasing of cells sensitivities, and accordingly increasing of IC50 values of the two derivatives as shown in table 2. […] Moreover, the sensitivities of the treated cancer cells to 4 and 5 were 6 times higher in case of the […] cell line A459, and even 40 times higher in case of hepatocyte carcinoma cell line HepG2.

[4] = test system: Burkitts Lymphoma (BL) cell lines DG-75; conditions: does not involve caspases, DNA fragmentation or PARP cleavage; cited from earlier work

With `O=CC1CC2c3cccc(Cl)c3C1c1c(Cl)cccc12` (stereo not shown) [Compound 4, 4,5-dichloro-9,10-dihydro-9,10-ethanoanthracene-11-carbaldehyde] as the compound, how does the IC50 [1] read?
Its IC50 is 1.1 µg/mL (≈ 3.63 µM).

What about the “sensitivity of treated cancer cells, times higher” value (“sensitivity” below) [1] of the same compound?
The value was 6 times.

And the IC50 [2]?
Its IC50 is 0.12 µg/mL (≈ 0.396 µM).

What about the “sensitivity” value [2] of the same compound?
Its value is 40 times.

What about the IC50 [3] of the same compound?
Its IC50 is 0.4 µg/mL (≈ 1.32 µM).

What about the “growth inhibition of third cell line (HCT)” value [3] of the same compound?
The value was “able to inhibit the growth”.

With `O=CC1CC2c3c(Cl)cccc3C1c1cccc(Cl)c12` (stereo not shown) [Compound 5, 1,8-dichloro-9,10-dihydro-9,10-ethanoanthracene-11-carbaldehyde] as the compound, how does the IC50 [1] read?
The IC50 was 3.71 µg/mL (≈ 12.2 µM).

And the “sensitivity” value [1]?
The value was 6 times.

And the IC50 [2]?
The IC50 was 0.65 µg/mL (≈ 2.14 µM).

What about the “sensitivity” value [2] of the same compound?
Its value is 40 times.

What about the IC50 [3] of the same compound?
Its IC50 is 0.7 µg/mL (≈ 2.31 µM).

And the “growth inhibition of third cell line (HCT)” value [3]?
Its value is “able to inhibit the growth”.

For `CNCC1CC2c3cccc(Cl)c3C1c1c(Cl)cccc12` (stereo not shown) [Compound 6, 1-(4,5-dichloro-9,10-dihydro-9,10-ethanoanthracen-11-yl)-N-methylmethanamine], which IC50 [1] is on record?
The IC50 was 25.5 µg/mL (≈ 80.1 µM).

And the IC50 [2]?
The IC50 was 12.7 µg/mL (≈ 39.8 µM).

And the melting point?
The melting point was 290 °C.

Which IC50 [1] does the source give for `CNCC1CC2c3c(Cl)cccc3C1c1cccc(Cl)c12` (stereo not shown) [Compound 7, 1-(1,8-dichloro-9,10-dihydro-9,10-ethanoanthracen-11-yl)-N-methylmethanamine] here?
Its IC50 is 18.9 µg/mL (≈ 59.4 µM).

What about the IC50 [2] of the same compound?
Its IC50 is 13.8 µg/mL (≈ 43.4 µM).

What about the melting point of the same compound?
Its melting point is 310 °C.

With `CNCCCC12CCC(c3ccccc31)c1ccccc12` [Maprotiline, 9,10-dihydro-N-methyl-9,10-ethanoanthracene-9-propanamine] as the compound, how does the “in vitro antiproliferative activity against DG-75” value [4] read?
The value was “antiproliferative agent”.
